This is an account of results in patent US20100130452A1, “Use of Doxycycline in the Treatment of Idiopathic Pulmonary Fibrosis” (NATIONAL RESEARCH DEVELOPMENT CORPORATION, priority 2007, published 2010).

One data set relates to IPF patients. The note with it: cited from earlier work.
The test system of data set [1] is patients (periodontal disease, malaria prevention, Pulmonary Capillary Hemangiomatosis, Q fever endocarditis). The note with it: in vivo; cited from earlier work.
In another data set the test system is suspected IPF patients. The note with it: human, in vivo.
Data set [2] has as its system Idiopathic Pulmonary Fibrosis patients. Briefly: Response to treatment with only doxycycline (case reports). The data set is classed as in vivo, human. The source says: Example 1 Response to Treatment with Only Doxycycline […]
[3] abbreviates: Case 2, 01 Oct. 2007 (earlier date, baseline).
[4] abbreviates: Case 2, 09 Jan. 2008, on doxycycline 100 mg twice a day for over 3 months.
[5] abbreviates: Case 4, 10 Jan. 2004 (earlier date, baseline).
Setting [6] is: Case 4, 20 Aug. 2004, after doxycycline for over 7 months.

With `COc1cc2c(c(OC)c1OC)-c1ccc(OC)c(=O)cc1[C@@H](NC(C)=O)CC2` [colchicines], the “Benefit of antifibrotic therapy in IPF” value in the data set on IPF patients (in vivo) is “did not show any significant benefit”.
For “doxycycline hyclate [doxycycline hyclate (Periostat)]”, the “Safety in clinical studies” value in data set [1] is reported as “safe”.
As to `CC(C)(S)[C@@H](N)C(=O)O` [D-penicillamine], the “Benefit of antifibrotic therapy in IPF” value with IPF patients (in vivo) is reported as “did not show any significant benefit”.
Regarding `C[C@H]1c2cccc(O)c2C(=O)C2=C(O)[C@]3(O)C(=O)C(C(N)=O)=C(O)[C@@H](N(C)C)[C@@H]3[C@@H](O)[C@@H]21` [doxycycline], in the data set with suspected IPF patients, the “Intolerance or adverse reaction” value is “no intolerance or adverse reaction” and the Tolerability entry was “well tolerated”. Moreover, in data set [1], the “Harm in long-term use (ACMP conclusion)” value is listed as “no evidence of harm” and the “Tolerability in Pulmonary Capillary Hemangiomatosis with atypical endotheliomatosis” value was “without any problem”. Moreover, in data set [2] (setting [3]), the “6 minute Walking distance” value is recorded as 980 ft and the FVC was 1.66 L. Moreover, in data set [2] (setting [4]), the “6 minute Walking distance” value is 1155 ft and the FVC is 1.92 L. In data set [2] (setting [5]), the FEV1 is given as 1.15, the FVC is recorded as 2.12, the “TLCO(%)” value is 49.4% and the TLCO/VA stood at 102.6. This molecule also displayed a VA in data set [2] (setting [5]) of 3.76. This molecule displayed an FVC in data set [2] (Case 4, 20 Aug. 2004, after doxycycline 100 mg twice a day for over 7 months) of 2.45. In addition, in data set [2] (setting [6]), the FEV1 is listed as 1.51, the “TLCO(%)” value was 58.9%, the TLCO/VA was 127.9 and the VA is on record as 3.59.
Turning to `Cc1ccc(=O)n(-c2ccccc2)c1` [Pirfinidone], in the data set on IPF patients (in vivo), the Tolerability result is “well tolerated”.

B1: Interferon gamma-1b: a down regulator to TGFβ (protein, UniProt P01579 24-161, looked up)
Interferon gamma: QDPYVKEAENLKKYFNAGHSDVADNGTLFLGILKNWKEESDRKIMQSQIVSFYFKLFKNFKDDQSIQKSVETIKEDMNVKFFNSNKKKRDDFEKLTNYSVTDLNVQRKAIHELIQVMAELSPAAKTGKRKRSQMLFRG
As for B1, the “Lung volume, gas exchange and symptoms” value with IPF patients (one year study) is reported as “increase”. In addition, in the data set with IPF patients (recent double blind controlled trial), the “Efficacy in IPF” value was “ruled out its efficacy”.
